Source: publication PMC9112895, “Selective Inhibition of Plasmodium falciparum ATPase 6 by Artemisinins and Identification of New Classes of Inhibitors after Expression in Yeast” (Antimicrobial Agents and Chemotherapy, 2022)

Tests used:
[1] = target: T1, A623E/S769N PfATP6 (Plasmodium falciparum, UniProt Q08853, A623E/S769N); assay: Yeast whole-cell assay, PfATP6 A623E/S769N double mutant; type: cell-based; conditions: read-out: IC50 (mean ± SD)
T1 construct: expressed in transfected cells; host or cells: Saccharomyces cerevisiae K667-derived strain
T1 sequence (Q08853 1-1228 A623E/S769N): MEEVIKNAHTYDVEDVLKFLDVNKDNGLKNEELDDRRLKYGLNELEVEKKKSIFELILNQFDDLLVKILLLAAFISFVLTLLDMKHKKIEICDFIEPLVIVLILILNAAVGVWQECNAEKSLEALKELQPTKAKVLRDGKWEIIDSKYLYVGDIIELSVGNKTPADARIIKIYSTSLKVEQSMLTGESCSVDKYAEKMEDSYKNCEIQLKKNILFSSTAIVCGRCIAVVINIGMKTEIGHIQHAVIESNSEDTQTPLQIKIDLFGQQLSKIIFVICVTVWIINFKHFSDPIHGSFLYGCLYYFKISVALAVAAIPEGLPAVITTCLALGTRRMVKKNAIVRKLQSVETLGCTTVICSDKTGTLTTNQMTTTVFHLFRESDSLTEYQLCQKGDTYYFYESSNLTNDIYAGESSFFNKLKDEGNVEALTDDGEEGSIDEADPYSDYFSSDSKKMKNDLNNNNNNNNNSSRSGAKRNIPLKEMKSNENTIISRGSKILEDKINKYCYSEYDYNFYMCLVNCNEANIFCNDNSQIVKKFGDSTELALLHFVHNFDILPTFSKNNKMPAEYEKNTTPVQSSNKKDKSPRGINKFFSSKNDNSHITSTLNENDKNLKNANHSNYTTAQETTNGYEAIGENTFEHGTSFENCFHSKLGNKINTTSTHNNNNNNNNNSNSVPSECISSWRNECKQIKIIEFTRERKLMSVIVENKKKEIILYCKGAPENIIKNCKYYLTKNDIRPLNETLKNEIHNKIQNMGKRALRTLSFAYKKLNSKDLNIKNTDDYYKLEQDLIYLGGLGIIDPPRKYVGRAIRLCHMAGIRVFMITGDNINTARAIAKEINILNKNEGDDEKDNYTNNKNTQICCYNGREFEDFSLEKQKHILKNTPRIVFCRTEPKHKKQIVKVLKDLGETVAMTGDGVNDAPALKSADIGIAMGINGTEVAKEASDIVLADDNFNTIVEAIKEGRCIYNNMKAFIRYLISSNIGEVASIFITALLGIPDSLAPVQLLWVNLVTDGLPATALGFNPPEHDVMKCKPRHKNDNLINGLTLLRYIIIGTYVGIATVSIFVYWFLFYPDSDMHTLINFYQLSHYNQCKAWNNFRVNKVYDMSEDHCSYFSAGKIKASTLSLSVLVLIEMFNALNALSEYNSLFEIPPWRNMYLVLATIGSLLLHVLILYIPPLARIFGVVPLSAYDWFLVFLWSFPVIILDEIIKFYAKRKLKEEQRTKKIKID
Description: Yeast transformations were performed using the method described by Gietz and Schiestl ([48]), and transformants were selected by an uracil auxotrophic marker. Transformations were confirmed by colony PCR. Both K667 and K667Δpdr5::HIS were transformed with the following plasmids: pUGpd plasmid as a vector-only control (derived from pRS316 [49]); br434 plasmid (derived from pRS316 [50]) containing the SERCA1a coding region from rabbit skeletal fast-twitch muscle (pbr434-SERCA1a); and pUGpd containing the yeast-optimized coding region of PfATP6 from Plasmodium falciparum (pUGpd-PfATP6). Site-directed mutagenesis was performed on the SERCA1a coding region to produce the mutation E255L in the protein. Mutations were also introduced into the PfATP6 coding region to produce mutations L263E, A623E, and S769N and the double mutation A623E/S769N ([13]).
The screening assay used here was developed from the protocol used by Pulcini et al. ([13]). […] The optimal calcium concentration was periodically monitored and, if necessary, adjusted using a calcium concentration range of 10 to 30 mM. […] The yeast growth was estimated from the absorbance at 620 nm in a Tecan plate reader. […] The data collected were analyzed using GraphPad Prism v9.0 (GraphPad software, San Diego, CA, U.S.A).

[2] = target: PfATP6 (Plasmodium falciparum, UniProt Q08853); assay: Yeast whole-cell growth inhibition (functional rescue) assay, K667[PfATP6]; type: cell-based; parameters: pUGpd containing the yeast-optimized coding region of PfATP6 from Plasmodium falciparum; expressed in transfected cells; host or cells: Saccharomyces cerevisiae K667 and K667Δpdr5::HIS
PfATP6, sequence (Q08853 whole entry): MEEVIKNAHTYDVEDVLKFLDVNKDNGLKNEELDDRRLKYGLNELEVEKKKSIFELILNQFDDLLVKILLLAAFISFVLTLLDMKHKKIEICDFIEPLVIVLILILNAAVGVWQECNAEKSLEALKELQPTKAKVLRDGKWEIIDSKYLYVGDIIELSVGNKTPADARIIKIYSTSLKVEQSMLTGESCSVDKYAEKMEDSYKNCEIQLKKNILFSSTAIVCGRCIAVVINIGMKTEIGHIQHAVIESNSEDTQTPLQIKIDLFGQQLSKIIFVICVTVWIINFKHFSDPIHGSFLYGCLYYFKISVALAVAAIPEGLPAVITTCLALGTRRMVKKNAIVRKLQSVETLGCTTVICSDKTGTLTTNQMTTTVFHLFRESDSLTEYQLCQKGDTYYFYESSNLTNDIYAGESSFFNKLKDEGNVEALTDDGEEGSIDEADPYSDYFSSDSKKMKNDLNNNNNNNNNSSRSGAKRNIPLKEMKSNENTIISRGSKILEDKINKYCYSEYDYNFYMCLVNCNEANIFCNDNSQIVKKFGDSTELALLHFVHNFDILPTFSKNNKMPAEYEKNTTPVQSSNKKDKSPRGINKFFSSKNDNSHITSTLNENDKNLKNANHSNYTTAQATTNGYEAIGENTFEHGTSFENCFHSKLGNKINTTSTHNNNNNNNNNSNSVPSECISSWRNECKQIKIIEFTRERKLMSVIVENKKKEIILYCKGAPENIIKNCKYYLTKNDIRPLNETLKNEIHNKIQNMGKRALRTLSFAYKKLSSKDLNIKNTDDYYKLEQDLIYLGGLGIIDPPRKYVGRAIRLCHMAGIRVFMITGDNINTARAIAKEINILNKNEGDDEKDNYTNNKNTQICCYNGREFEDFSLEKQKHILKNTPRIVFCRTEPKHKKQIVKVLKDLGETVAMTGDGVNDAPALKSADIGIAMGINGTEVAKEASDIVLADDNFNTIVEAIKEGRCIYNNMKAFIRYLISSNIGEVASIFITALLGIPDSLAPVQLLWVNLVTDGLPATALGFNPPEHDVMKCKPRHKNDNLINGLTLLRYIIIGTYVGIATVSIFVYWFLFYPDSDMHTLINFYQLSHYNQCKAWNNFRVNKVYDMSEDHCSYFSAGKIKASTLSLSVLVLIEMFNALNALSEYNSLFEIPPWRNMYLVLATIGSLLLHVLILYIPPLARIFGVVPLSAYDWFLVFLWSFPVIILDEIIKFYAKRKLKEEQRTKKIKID
Description: The screening assay used here was developed from the protocol used by Pulcini et al. ([13]). A single colony of the yeast strain to be screened was picked and grown in 5 mL of selective medium until stationary phase was reached. The culture was diluted 100-fold in ampicillin-supplemented yeast extract-peptone-dextrose (YPD) medium to an OD at 620 nm (OD620) equivalent to that of lag phase. YPD medium was supplemented with an appropriate concentration of calcium, depending on the transformed strain. […] The optimal calcium concentration was periodically monitored and, if necessary, adjusted using a calcium concentration range of 10 to 30 mM. A final volume of 200 μL of the yeast culture was added to each well of a 96-well plate, with 5 technical replicates included per inhibitor. All inhibitors were dissolved in dimethyl sulfoxide (DMSO) unless otherwise stated. […] The 96-well plates were incubated at 30°C for 42 h. The yeast growth was estimated from the absorbance at 620 nm in a Tecan plate reader. Growth was normalized with the no-drug control to present data as percent growth. The data collected were analyzed using GraphPad Prism v9.0 (GraphPad software, San Diego, CA, U.S.A).

## CC(=O)C1=C(O)[C@@H]2[C@H]3c4c[nH]c5cccc(c45)C[C@H]3C(C)(C)N2C1=O [CPA, cyclopiazonic acid]
[1]
  IC50: 6.61 µM
[2]
  IC50: 11.6 µM
